Test results published in patent publication US20180057505A1, “BICYCLIC HETEROARYL COMPOUNDS USEFUL AS INHIBITORS OF THE PAR-2 SIGNALING PATHWAY” (VERTEX PHARMACEUTICALS INCORPORATED, priority 2015, published 2018).
pIC50: −log10 of the molar value.

Columns and labels:
Format in all cases: cell-based
PAR2 (HT-29 cells) [1] = target: T1, PAR2 (HT-29 cells) (Homo sapiens, UniProt P55085); assay: Ca FLIPR TETRA assay, ANTAGONIST mode, activator 8 μM SLIGKV; details: HT-29 cells; activator 8 μM SLIGKV; Method A: maximal concentration of antagonist 0.1, 1 or 2 μM
T1 construct: host or cells: HT-29
T1 sequence (P55085 26-397): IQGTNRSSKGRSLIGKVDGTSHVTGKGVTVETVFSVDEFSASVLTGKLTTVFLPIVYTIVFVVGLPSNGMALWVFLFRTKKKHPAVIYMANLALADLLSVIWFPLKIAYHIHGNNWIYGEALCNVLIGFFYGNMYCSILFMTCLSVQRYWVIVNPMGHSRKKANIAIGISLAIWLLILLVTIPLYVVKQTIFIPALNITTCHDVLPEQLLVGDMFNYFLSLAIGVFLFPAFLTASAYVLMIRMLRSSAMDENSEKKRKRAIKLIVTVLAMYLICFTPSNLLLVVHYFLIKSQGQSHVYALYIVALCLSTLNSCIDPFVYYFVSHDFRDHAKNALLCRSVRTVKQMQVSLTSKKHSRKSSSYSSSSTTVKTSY
Outline: (§1)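 Antagonist-mode FLIPR Tetra Ca2+ read: dye-loaded HT-29 cells preincubated 30 min at r.t. with compound (first read checks agonism alone), then challenged with final 3.1 U/mL trypsin, 8 μM SLIGKV, 1 U/mL thrombin or 0.6 μM UTP. Cells plated overnight in 1% FBS McCoy's; Calcium 5 loading 45 min 37 °C plus 15 min r.t.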

PAR2 (HT-29 cells) [2] = target: T1, PAR2 (HT-29 cells); assay: Ca FLIPR TETRA assay, ANTAGONIST mode, activator 3.1 U/mL trypsin; details: HT-29 cells; activator 3.1 U/mL trypsin; Method A: maximal concentration of antagonist 0.1, 1 or 2 μM
Outline: as §1

[3] = system: Thrombin-stimulated Ca2+ response in HT-29 cells; assay: Ca FLIPR TETRA assay, ANTAGONIST mode, activator 1 U/mL Thrombin; details: HT-29 cells, activator 1 U/mL Thrombin
Outline: as §1

[4] = system: UTP-stimulated Ca2+ response in HT-29 cells; assay: Ca FLIPR TETRA assay, ANTAGONIST mode, activator 0.6 μM UTP; details: HT-29 cells, activator 0.6 μM UTP
Outline: as §1

| Structure (SMILES) | pIC50 (PAR2 (HT-29 cells) [1]) | pIC50 (PAR2 (HT-29 cells) [2]) | pIC50 ([3]; Homo sapiens) | pIC50 ([4]; Homo sapiens) | pIC50 [3] | pIC50 [4] |
| --- | --- | --- | --- | --- | --- | --- |
| CC(C)(C)c1cc(-c2ccc(Cl)cc2)nc2cc(C(=O)N3CCN(c4ncc(C(=O)O)cn4)C(=O)C3(C)C)oc12 [Example I-369] | 7.92 | 7.72 | < 5.70 | < 5.70 |  |  |
| CC1(C)CCC(c2cc(C(C)(C)C)c3oc(C(=O)N4CCN(C(=O)CC[C@H](N)C(=O)O)CC4(C)C)cc3n2)CC1 [Example I-377] | 6.40 | 6.33 | < 5.70 | < 5.70 |  |  |
| CC1(C)CCC(c2cc(C(C)(C)C)c3oc(C(=O)N4CCN(C(=O)CCCC(=O)O)CC4(C)C)cc3n2)CC1 [Example I-378] | 8.77 | 8.46 | < 5.70 | < 5.70 |  |  |
| CC1(C)CCC(c2cc(C(C)(C)C)c3oc(C(=O)N4CCN(C(=O)c5ccc(C(=O)O)cn5)CC4(C)C)cc3n2)CC1 [Example I-379] | 7.59 | 7.25 | < 5.70 | < 5.70 |  |  |
| CC1(C)CCC(c2cc(C(C)(C)C)c3oc(C(=O)N4CCN(C(=O)c5ccc(C(=O)O)nc5)CC4(C)C)cc3n2)CC1 [Example I-380] | 6.68 | 6.62 | < 5.70 | < 5.70 |  |  |
| Cc1coc(N2CCN(C(=O)c3cc4nc(C5CCC(C)(C)CC5)cc(C(C)(C)C)c4o3)C(C)(C)C2)n1 [Example I-382] | 6.92 | 7.00 | < 5.70 | < 5.70 |  |  |
| Cc1cccc(C2CCN(C(=O)c3cc4nc(-c5ccc(Cl)cc5)cc(C(C)(C)C)c4o3)C(C)(C)C2)n1 (stereo not shown) [Example I-383] | 7.72 | 7.92 |  |  | < 5.70 | < 5.70 |
| Cc1nc(C(=O)O)cnc1C1CCN(C(=O)c2cc3nc(C4CCC(C)(C)CC4)cc(C(C)(C)C)c3o2)C(C)(C)C1 (stereo not shown) [Example I-384] | 8.60 | 8.66 |  |  | < 5.70 | < 5.70 |
| Cc1nc(C)c(N2CCN(C(=O)c3cc4nc(-c5ccc(Cl)cc5)cc(C(C)(C)C)c4o3)C(C)(C)C2=O)o1 [Example I-386] | 7.30 | 7.40 | < 5.70 | < 5.70 |  |  |
| Cc1cncc(N2CCN(C(=O)c3cc4nc(-c5ccc(Cl)cc5)cc(C(C)(C)C)c4o3)C(C)(C)C2)n1 [Example I-387] | 7.92 | 8.00 | < 5.70 | < 5.70 |  |  |
| Cc1cnc(N2CCN(C(=O)c3cc4nc(-c5ccc(Cl)cc5)cc(C(C)(C)C)c4o3)C(C)(C)C2)nc1 [Example I-388] | 7.44 | 7.55 | < 5.70 | < 5.70 |  |  |
| CC1(C)CCC(c2cc(C(C)(C)C)c3oc(C(=O)N4CCN(c5ncc(C(=O)O)cc5F)CC4(C)C)cc3n2)CC1 [Example I-391] | 9.40 | 9.40 | < 6.00 | 6.00 |  |  |
| Cc1cccnc1N1CCN(C(=O)c2cc3nc(-c4ccc(Cl)cc4)cc(C(C)(C)C)c3o2)C(C)(C)C1 [Example I-394] | 7.24 | 7.26 | < 5.70 | < 5.70 |  |  |
| Cc1ccc(N2CCN(C(=O)c3cc4nc(-c5ccc(Cl)cc5)cc(C(C)(C)C)c4o3)C(C)(C)C2)nc1 [Example I-395] | 7.25 | 7.39 | < 5.70 | < 5.70 |  |  |
| Cc1ccc(C(=O)O)nc1C1CCN(C(=O)c2cc3nc(-c4ccc(Cl)cc4)cc(C(C)(C)C)c3o2)C(C)(C)C1 (stereo not shown) [Example I-397] | 9.22 | 9.22 |  |  | < 6.00 | 6.12 |
| Cc1cc(N2CCN(C(=O)c3cc4nc(C5CCC(C)(C)CC5)cc(C(C)(C)C)c4o3)C(C)(C)C2)ncc1C(=O)O [Example I-398] | 9.40 | 9.30 | < 6.00 | 6.00 |  |  |

The next lines start with the values.

| pIC50 (PAR2 (HT-29 cells) [1]) | pIC50 (PAR2 (HT-29 cells) [2]) | pIC50 ([3]; Homo sapiens) | pIC50 ([4]; Homo sapiens) | pIC50 [3] | pIC50 [4] | Structure (SMILES) |
| --- | --- | --- | --- | --- | --- | --- |
| 9.70 | 9.40 | < 5.81 | < 5.81 |  |  | CC(C)(CCC(=O)N1CCN(C(=O)c2cc3nc(-c4ccc(Cl)c(F)c4)cc(C(C)(C)C)c3o2)C(C)(C)C1)C(=O)O [Example I-367] |
| 7.77 | 7.77 | < 5.70 | < 5.70 |  |  | CC(C)(C)c1cc(-c2ccc(Cl)cc2)nc2cc(C(=O)N3CCN(c4ncc(F)cn4)CC3(C)C)oc12 [Example I-370] |
| 8.28 | 8.28 |  |  | < 5.70 | < 5.70 | Cc1cnc(N2CCN(C(=O)c3cc4nc(-c5ccc(Cl)c(F)c5)cc(C(C)(C)C)c4o3)C(C)(C)C2=O)nc1 [Example I-371] |
| 9.70 | 9.52 | < 5.70 | < 5.70 |  |  | CC(C)(C)c1cc(-c2ccc(Cl)c(F)c2)nc2cc(C(=O)N3CCN(C(=O)CC4(C(=O)O)CCC4)CC3(C)C)oc12 [Example I-372] |
| 9.22 | 9.10 | < 5.96 | < 5.96 |  |  | CC(C)[C@@H](CC(=O)O)C(=O)N1CCN(C(=O)c2cc3nc(-c4ccc(Cl)c(F)c4)cc(C(C)(C)C)c3o2)C(C)(C)C1 [Example I-373] |
| 8.44 | 8.39 | < 5.70 | < 5.70 |  |  | CC(C)[C@H](CC(=O)O)C(=O)N1CCN(C(=O)c2cc3nc(-c4ccc(Cl)c(F)c4)cc(C(C)(C)C)c3o2)C(C)(C)C1 [Example I-374] |
| 9.52 | 9.15 | < 5.70 | < 5.70 |  |  | CC(C)(C)c1cc(-c2ccc(Cl)c(F)c2)nc2cc(C(=O)N3CCN(C(=O)[C@@H]4CCC[C@H](C(=O)O)C4)CC3(C)C)oc12 [Example I-375] |
| 6.55 | 6.54 | < 5.70 | < 5.70 |  |  | CC(C)(C)c1cc(-c2ccc(Cl)c(F)c2)nc2cc(C(=O)N3CCN(C(=O)CCP(C)(=O)O)CC3(C)C)oc12 [Example I-376] |
| 9.05 | 8.57 | < 5.70 | < 5.70 |  |  | CC(C)(C)c1cc(-c2ccc(Cl)c(F)c2)nc2cc(C(=O)N3CCN(c4ccc(F)c(C(=O)O)n4)CC3(C)C)oc12 [Example I-381] |
| 7.66 | 7.64 | < 5.70 | < 5.70 |  |  | Cc1nccc(N2CCN(C(=O)c3cc4nc(-c5ccc(Cl)cc5)cc(C(C)(C)C)c4o3)C(C)(C)C2)n1 [Example I-389] |
| 7.72 | 7.90 | < 5.70 | < 5.70 |  |  | Cc1cc(N2CCN(C(=O)c3cc4nc(-c5ccc(Cl)cc5)cc(C(C)(C)C)c4o3)C(C)(C)C2)ncn1 [Example I-390] |
| 8.42 | 8.55 | < 5.70 | < 5.70 |  |  | Cc1nc(C(=O)O)cnc1N1CCN(C(=O)c2cc3nc(-c4ccc(Cl)cc4)cc(C(C)(C)C)c3o2)C(C)(C)C1 [Example I-392] |
| 9.40 | 9.52 | < 6.00 | 6.07 |  |  | CC(C)(C)c1cc(-c2ccc(Cl)cc2)nc2cc(C(=O)N3CCN(c4ncc(C(=O)O)cc4F)CC3(C)C)oc12 [Example I-393] |
| 9.52 | 9.52 | 6.00 | 5.97 |  |  | CC(C)(C)c1cc(-c2ccc(Cl)c(F)c2)nc2cc(C(=O)N3CCN(c4ncc(C(=O)O)cc4F)CC3(C)C)oc12 [Example I-396] |
| 9.40 | 9.22 | < 6.00 | 6.07 |  |  | Cc1cc(N2CCN(C(=O)c3cc4nc(-c5ccc(Cl)cc5)cc(C(C)(C)C)c4o3)C(C)(C)C2)ncc1C(=O)O [Example I-399] |
